This passage reports Ki results from ChEMBL document CHEMBL3352092, “Ferrier sulfamidoglycosylation of glycals catalyzed by nitrosonium tetrafluoroborate: towards new carbonic anhydrase glycoinhibitors” (Bioorg Med Chem, 2014).

The target in one test is Carbonic anhydrase 1 (Homo sapiens, UniProt P00915). Kind of test: Inhibition of human full length CA1 by stopped flow CO2 hydration assay.
The target of another test is Carbonic anhydrase 9 (Homo sapiens, UniProt Q16790). Put plainly: Inhibition of human recombinant CA9 catalytic domain by stopped flow CO2 hydration assay.
Another test addresses Carbonic anhydrase 2 (Homo sapiens, UniProt P00918). Put plainly: Inhibition of human full length CA2 by stopped flow CO2 hydration assay.

Chain of Carbonic anhydrase 1 (P00915 whole entry, the tested form may be a part): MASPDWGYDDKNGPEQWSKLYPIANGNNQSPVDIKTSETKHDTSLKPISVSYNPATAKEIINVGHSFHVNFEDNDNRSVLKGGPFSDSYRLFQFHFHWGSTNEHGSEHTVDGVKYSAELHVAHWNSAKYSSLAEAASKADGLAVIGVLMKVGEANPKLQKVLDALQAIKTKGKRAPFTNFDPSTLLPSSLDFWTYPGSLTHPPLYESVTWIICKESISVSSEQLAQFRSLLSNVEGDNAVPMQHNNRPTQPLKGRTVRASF

By Ki is commonly meant the dissociation constant of the complex between target and ligand, obtained from inhibition or displacement. With `CC(=O)OC[C@H]1OC(NS(=O)(=O)NO)C=C[C@@H]1OC(C)=O` (stereo partly drawn), the Ki at Carbonic anhydrase 1 was 813 nM; at Carbonic anhydrase 9, 90 nM.
With `CC(=O)OC[C@H]1OC(NS(=O)(=O)NO)C=C[C@H]1OC(C)=O` (stereo partly drawn), the Ki was 752 nM on Carbonic anhydrase 1 and 79 nM on Carbonic anhydrase 9.
For `CC(=O)O[C@H]1C=CC(NS(=O)(=O)NO)OC1` (stereo partly drawn), the Ki at Carbonic anhydrase 2 was greater than 10000 nM; on Carbonic anhydrase 1, greater than 10000 nM; on Carbonic anhydrase 9, 54 nM.
`CC(=O)O[C@@H]1C=CC(NS(=O)(=O)NO)OC1` (stereo partly drawn): the Ki is greater than 10000 nM at Carbonic anhydrase 2, greater than 10000 nM on Carbonic anhydrase 1 and 44 nM on Carbonic anhydrase 9.
As for `CC(=O)O[C@@H]1C=CC(NS(=O)(=O)NO)O[C@H]1C` (stereo partly drawn), the Ki was greater than 10000 nM at Carbonic anhydrase 1 and 47 nM on Carbonic anhydrase 9.
As to `O=S(=O)(NO)NC1C=C[C@H](O)[C@@H](CO)O1` (stereo partly drawn), the Ki at Carbonic anhydrase 1 was greater than 10000 nM; on Carbonic anhydrase 9 it was 9 nM.
For the compound `O=S(=O)(NO)NC1C=C[C@@H](O)[C@@H](CO)O1` (stereo partly drawn), the results for the Ki at Carbonic anhydrase 1 and at Carbonic anhydrase 9 were 917 nM and 44 nM, respectively.
Turning to `O=S(=O)(NO)NC1C=C[C@H](O)CO1` (stereo partly drawn), the Ki was 927 nM at Carbonic anhydrase 1 and 8 nM on Carbonic anhydrase 9.
Turning to `O=S(=O)(NO)NC1C=C[C@@H](O)CO1` (stereo partly drawn), the Ki at Carbonic anhydrase 1 is greater than 10000 nM; on Carbonic anhydrase 9, 9 nM.
Take `C[C@@H]1OC(NS(=O)(=O)NO)C=C[C@H]1O` (stereo partly drawn): the Ki is greater than 10000 nM at Carbonic anhydrase 2, greater than 10000 nM at Carbonic anhydrase 1 and 8 nM on Carbonic anhydrase 9.
